This test addresses T1, anoctamin-1 (hANO1, TMEM16A) (Homo sapiens, UniProt Q5XXA6).
T1 sequence (Q5XXA6 1-986): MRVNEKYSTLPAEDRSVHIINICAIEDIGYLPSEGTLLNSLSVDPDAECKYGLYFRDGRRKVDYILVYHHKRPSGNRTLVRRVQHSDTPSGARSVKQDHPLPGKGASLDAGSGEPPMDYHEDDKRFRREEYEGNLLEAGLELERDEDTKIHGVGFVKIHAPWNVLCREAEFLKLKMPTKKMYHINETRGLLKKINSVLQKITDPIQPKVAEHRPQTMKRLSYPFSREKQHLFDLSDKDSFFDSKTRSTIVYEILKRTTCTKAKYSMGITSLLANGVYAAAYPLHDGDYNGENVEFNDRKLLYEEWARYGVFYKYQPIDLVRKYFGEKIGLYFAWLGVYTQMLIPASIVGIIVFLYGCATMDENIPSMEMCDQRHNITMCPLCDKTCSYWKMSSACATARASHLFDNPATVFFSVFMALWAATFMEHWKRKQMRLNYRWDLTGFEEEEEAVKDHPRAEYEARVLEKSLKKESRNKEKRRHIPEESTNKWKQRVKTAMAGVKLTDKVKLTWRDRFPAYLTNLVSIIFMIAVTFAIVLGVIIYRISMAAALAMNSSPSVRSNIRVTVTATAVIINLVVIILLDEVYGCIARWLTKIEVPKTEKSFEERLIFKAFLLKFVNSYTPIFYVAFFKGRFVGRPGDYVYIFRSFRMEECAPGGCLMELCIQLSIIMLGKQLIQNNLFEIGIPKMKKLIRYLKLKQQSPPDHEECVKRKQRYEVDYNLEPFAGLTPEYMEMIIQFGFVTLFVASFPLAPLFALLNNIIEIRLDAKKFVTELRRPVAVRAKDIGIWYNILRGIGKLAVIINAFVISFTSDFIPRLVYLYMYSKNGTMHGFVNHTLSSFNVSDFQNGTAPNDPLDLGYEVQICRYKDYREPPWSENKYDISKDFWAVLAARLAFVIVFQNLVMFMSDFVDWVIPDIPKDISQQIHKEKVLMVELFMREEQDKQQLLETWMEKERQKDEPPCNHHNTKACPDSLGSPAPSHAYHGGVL
The experiment in a line: whole-cell patch clamp, hANO1-HEK293T. Format: cell-based. A general note: The patch-clamp technique gives a direct electrical read-out from membranes.

As a reminder, the IC50 is the point on the concentration scale where inhibition reaches its midpoint. `O=c1cc(-c2ccc(O)c(O)c2)oc2cc(O)cc(O)c12` [compound 5, luteolin] returned an IC50 of 27.9 ± 1.61 µM.
